Reference: US20200131669A1, “CYCLIC PEPTIDE COMPOUND HAVING HIGH MEMBRANE PERMEABILITY, AND LIBRARY CONTAINING SAME” (Chugai Seiyaku Kabushiki Kaisha, priority 2017, published 2020)
Starred links: 1 amine or outer side, 2 acyl side, 3 side chain; linkers in the order of their positions; H or OH if unused. Positions of bridges follow the written chain, without caps; N, C: chain ends. Non-standard residues stand in square brackets, D forms with d. Residues, ends and D or L forms follow the SMILES beside them. ξ: configuration not given here. *: point of attachment. NMePhe(3-Cl) = CN[C@@H](Cc1cccc(Cl)c1)C(=O)O; NMeW = CN[C@@H](Cc1c[nH]c2ccccc12)C(=O)O; Ethyl(2-morpholino) = C1CN(CC*)CCO1; X3 = O=C([C@H](CCCCO)N[*:1])[*:2]; Gly(N-(CH2)2OEt) = CCOCCNCC(=O)O; Hyp = O=C(O)[C@@H]1C[C@@H](O)CN1; NMeF = CN[C@@H](Cc1ccccc1)C(=O)O; NMeGABA = CN(CCCC(=O)[*:2])[*:1]; NMeI = CC[C@H](C)[C@H](NC)C(=O)O; hPhe = N[C@@H](CCc1ccccc1)C(=O)O; NMeD = CN[C@@H](CC(=O)O)C(=O)O; NMeL = CN[C@@H](CC(C)C)C(=O)O; NMeV = CN[C@H](C(=O)O)C(C)C; NMeAbu = CC[C@H](NC)C(=O)O; NMeA = CN[C@@H](C)C(=O)O; Piperidide = C1CCN(*)CC1; CH2CMe2OH = CC(C)(O)C*; Me2NCH2CH2 = CN(C)CC*; NBuGly = CCCCNCC(=O)O; NPrGly = CCCNCC(=O)O; Bn = c1ccc(C*)cc1; ξS = NC(CO)C(=O)O; Sar = CNCC(=O)O; tBu = CC(C)(C)*

Assay: Caco-2 membrane permeability, improved method as used in the following Examples (96-well, 20 to 24 h preincubation)
Assay type: in vitro ADME
Conditions: human, Caco-2, Caco-2
How it was run: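 Papp (cm/sec) was derived from LC/MS of basal samples collected 180 min after apical dosing in FaSSIF/HBSS pH 6.0 with 1% DMSO, against a basal HBSS pH 7.4 receiver containing 4% BSA. Three-week Caco-2 cultures were first preincubated with compound in DMEM+FaSSIF at 37 °C for 20–24 h.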

Structure (SMILES) | Papp A→B at 180 min [×10⁻⁶ cm/s]
CC[C@H](C)[C@@H]1NC(=O)[C@H](CC(C)C)N(C)C(=O)CCCN(C)C(=O)C[C@@H](C(=O)N2CCCCC2)NC(=O)[C@H](CC(C)C)N(C)C(=O)[C@H](C)N(C)C(=O)[C@H]([C@@H](C)O)NC(=O)[C@H](CC(C)C)N(C)C(=O)[C@H](CCc2ccccc2)NC(=O)[C@H](CC(C)C)N(C)C(=O)[C@H](Cc2ccccc2)N(C)C1=O [pd316] ([NMeGABA][NMeL]I[NMeF][NMeL][hPhe][NMeL]T[NMeA][NMeL]D-Piperidide; lactam N-11) | 1.4
CCCN1CC(=O)N(C)[C@@H](CC(C)C)C(=O)N[C@H](C(=O)N2CCCCC2)CC(=O)N(C)[C@@H](C)C(=O)N[C@@H](COCC(C)(C)O)C(=O)N(C)[C@@H](CC(C)C)C(=O)N(C)[C@@H](Cc2ccccc2)C(=O)N[C@@H](CC(C)C)C(=O)N(C)[C@@H](Cc2ccccc2)C(=O)N(C)[C@@H]([C@@H](C)CC)C(=O)N[C@@H]([C@@H](C)O)C1=O [pd428] ([NMeA]S(CH2CMe2OH)[NMeL][NMeF]L[NMeF][NMeI]T[NPrGly][NMeL]D-Piperidide; lactam N-11) | 2.8
CCCCN1CC(=O)N(C)[C@@H](C(C)C)C(=O)N[C@H](C(=O)N2CCCCC2)CC(=O)N(C)[C@@H](C)C(=O)N[C@@H](COCCN(C)C)C(=O)N(C)[C@@H](CC(C)C)C(=O)N(C)[C@@H](Cc2ccccc2)C(=O)N[C@@H](CC(C)C)C(=O)N(C)[C@@H](Cc2ccccc2)C(=O)N(C)[C@@H](CC(C)C)C(=O)N[C@@H]([C@@H](C)O)C1=O [pd56] ([NMeA]S(Me2NCH2CH2)[NMeL][NMeF]L[NMeF][NMeL]T[NBuGly][NMeV]D-Piperidide; lactam N-11) | 0.12
CCCCN1CC(=O)N(C)[C@@H](Cc2ccccc2)C(=O)N(C)[C@@H](CC(C)C)C(=O)N[C@@H](C(C)C)C(=O)N(C)[C@@H](CC(C)C)C(=O)N[C@H](C(=O)N2CCCCC2)CC(=O)N(C)CC(=O)N(C)[C@@H](CC(C)C)C(=O)NC(COCCN2CCOCC2)C(=O)N(C)[C@@H](CC(C)C)C(=O)N[C@@H]([C@@H](C)O)C1=O (stereo partly drawn) [pd484] ([Sar][NMeL][ξS](Ethyl(2-morpholino))[NMeL]T[NBuGly][NMeF][NMeL]V[NMeL]D-Piperidide; lactam N-11) | 1.8
CCO[C@@H]1C[C@H]2C(=O)N(C)[C@@H](C(C)C)C(=O)N[C@@H]([C@@H](C)O)C(=O)N(C)[C@@H](Cc3ccccc3)C(=O)N[C@@H](Cc3ccccc3)C(=O)N(C)[C@@H](CC(C)C)C(=O)N(C)[C@H](C(=O)N3CCCCC3)CC(=O)N3CCC[C@H]3C(=O)N(C)[C@@H](C(C)C)C(=O)N[C@@H](COC(C)(C)C)C(=O)N(C)[C@@H](CC(C)C)C(=O)N2C1 [pd376] (P[NMeV]S(tBu)[NMeL][Hyp](Et)[NMeV]T[NMeF]F[NMeL][NMeD]-Piperidide; lactam N-11) | 2.4
CCCN1CC(=O)N(C)[C@@H](CC(C)C)C(=O)N[C@@H](COCC(C)(C)O)C(=O)N(C)[C@@H](Cc2ccccc2)C(=O)N(C)[C@@H](CC(C)C)C(=O)N[C@H](C(=O)N2CCCCC2)CC(=O)N[C@H](C(C)C)C(=O)N(C)[C@@H](Cc2ccccc2)C(=O)N[C@@H](CC(C)C)C(=O)N(C)[C@@H](CC(C)C)C(=O)N[C@@H]([C@@H](C)O)C1=O [pd432] ([dV][NMeF]L[NMeL]T[NPrGly][NMeL]S(CH2CMe2OH)[NMeF][NMeL]D-Piperidide; lactam N-11) | 1.5
CC(C)C[C@@H]1NC(=O)[C@H](Cc2ccccc2)N(C)C(=O)[C@@H](CC(C)C)NC(=O)C[C@@H](C(=O)N2CCCCC2)NC(=O)[C@H](C(C)C)N(C)C(=O)[C@H](Cc2ccccc2)N(C)C(=O)[C@H](COC(C)(C)C)NC(=O)[C@H](CC(C)C)N(C)C(=O)CN(C)C(=O)[C@H](CCCCO)NC(=O)[C@H](CC(C)C)N(C)C1=O [pd449] ([dL][NMeF]L[NMeL][X3][Sar][NMeL]S(tBu)[NMeF][NMeV]D-Piperidide; lactam N-11) | 2
CCOCCN1CC(=O)N(C)[C@@H](CC(C)C)C(=O)N[C@@H](COC(C)(C)C)C(=O)N(C)[C@@H](Cc2ccccc2)C(=O)N(C)[C@@H](CC)C(=O)N[C@H](C(=O)N2CCCCC2)CC(=O)N[C@H](CC(C)C)C(=O)N(C)[C@@H](Cc2ccccc2)C(=O)N[C@@H](CC(C)C)C(=O)N(C)[C@@H](CC)C(=O)N[C@@H]([C@@H](C)O)C1=O [pd416] ([dL][NMeF]L[NMeAbu]T[Gly(N-(CH2)2OEt)][NMeL]S(tBu)[NMeF][NMeAbu]D-Piperidide; lactam N-11) | 3.1
CC(C)C[C@H]1C(=O)N(C)[C@@H](Cc2ccccc2)C(=O)N[C@@H](COC(C)(C)C)C(=O)N(C)[C@@H](C)C(=O)N[C@H](C(=O)N2CCCCC2)CC(=O)N(C)[C@@H](C)C(=O)N(C)[C@@H](Cc2ccccc2)C(=O)N[C@@H](CCc2ccccc2)C(=O)N(C)[C@@H](CC(C)C)C(=O)N[C@@H]([C@@H](C)O)C(=O)N(C)CC(=O)N1C [pd310] ([NMeA][NMeF][hPhe][NMeL]T[Sar][NMeL][NMeF]S(tBu)[NMeA]D-Piperidide; lactam N-11) | 1.6

Same assay, conditions: human, Caco-2, Caco-2 (cm/sec)

Structure (SMILES) | Papp A→B at 180 min [×10⁻⁶ cm/s]
CC[C@H](C)[C@@H]1NC(=O)[C@H](CC(C)C)N(C)C(=O)CCCN(C)C(=O)C[C@@H](C(=O)N2CCCCC2)NC(=O)[C@H](CC(C)C)N(C)C(=O)[C@H](CC(C)C)N(C)C(=O)[C@H]([C@@H](C)O)NC(=O)[C@H](CC(C)C)N(C)C(=O)[C@H](COC(C)(C)C)NC(=O)[C@H](Cc2c[nH]c3ccccc23)N(C)C(=O)[C@H](Cc2ccccc2)N(C)C1=O [pd107] ([NMeGABA][NMeL]I[NMeF][NMeW]S(tBu)[NMeL]T[NMeL][NMeL]D-Piperidide; lactam N-11) | 0.17
CC[C@H](C)[C@@H]1NC(=O)[C@H](Cc2ccccc2)N(C)C(=O)[C@H](C)N(C)C(=O)C[C@@H](C(=O)N(C)[C@@H](Cc2ccccc2)C(=O)N(C)[C@@H](Cc2ccccc2)C(=O)N[C@@H](C)C(=O)N2CCCCC2)NC(=O)[C@H](CC(C)C)N(C)C(=O)[C@H](Cc2ccccc2)N(C)C(=O)[C@H]([C@@H](C)O)NC(=O)[C@H](CC(C)C)N(C)C(=O)[C@H](CC(C)C)N(C)C(=O)[C@H](C)N(C)C1=O [pd240] ([NMeA][NMeF]I[NMeA][NMeL][NMeL]T[NMeF][NMeL]D[NMeF][NMeF]A-Piperidide; lactam N-10) | 0.06
CC(C)C[C@@H]1NC(=O)[C@H](Cc2ccccc2)N(C)C(=O)[C@H]([C@@H](C)O)NC(=O)[C@H](Cc2ccccc2)N(C)C(=O)CN(C)C(=O)[C@H](Cc2ccccc2)NC(=O)[C@H](CC(C)C)N(C)C(=O)[C@H](CC(C)C)NC(=O)[C@H](Cc2ccccc2)N(C)C(=O)[C@H](C)N(C)C(=O)C[C@@H](C(=O)N2CCCCC2)NC1=O [pd231] ([NMeA][NMeF]L[NMeL]F[Sar][NMeF]T[NMeF]LD-Piperidide; lactam N-11) | 0.21
CC(C)C[C@@H]1NC(=O)[C@H](Cc2ccccc2)N(C)C(=O)[C@@H](C(C)C)NC(=O)C[C@@H](C(=O)N2CCCCC2)NC(=O)[C@H](C)N(C)C(=O)[C@H](CC(C)C)N(C)C(=O)[C@H](COC(C)(C)C)NC(=O)[C@H](CC(C)C)N(C)C(=O)CN(C)C(=O)[C@H](Cc2ccc(O)cc2)NC(=O)[C@H](CC(C)C)N(C)C1=O [pd127] ([dV][NMeF]L[NMeL]Y[Sar][NMeL]S(tBu)[NMeL][NMeA]D-Piperidide; lactam N-11) | 0.13
CC[C@H](C)[C@@H]1NC(=O)[C@H](Cc2ccccc2)N(C)C(=O)[C@H]([C@@H](C)O)NC(=O)[C@@H](C)NC(=O)C[C@@H](C(=O)N(C)[C@@H](Cc2ccccc2)C(=O)N(C)[C@@H](Cc2ccccc2)C(=O)N[C@@H](C)C(=O)N2CCCCC2)NC(=O)[C@H](CC(C)C)N(C)C(=O)[C@H](CC(C)C)N(C)C(=O)[C@H](Cc2ccccc2)N(C)C(=O)[C@H](CC(C)C)N(C)C(=O)[C@H](C)N(C)C1=O [pd242] ([dA]T[NMeF]I[NMeA][NMeL][NMeF][NMeL][NMeL]D[NMeF][NMeF]A-Piperidide; lactam N-10) | 0.058
CC(C)C[C@H]1C(=O)N[C@@H](COC(C)(C)C)C(=O)N(C)[C@@H](Cc2ccccc2)C(=O)N(C)[C@@H](CC(C)C)C(=O)N[C@H](C(=O)N2CCCCC2)CC(=O)N2CCC[C@@H]2C(=O)N(C)[C@@H](Cc2cccc(Cl)c2)C(=O)N[C@@H](C(C)C)C(=O)N(C)[C@@H](C(C)C)C(=O)N[C@@H]([C@@H](C)O)C(=O)N(C)CC(=O)N1C [pd155] ([dP][NMePhe(3-Cl)]V[NMeV]T[Sar][NMeL]S(tBu)[NMeF][NMeL]D-Piperidide; lactam N-11) | 2.1

Same assay, conditions: human; Papp, Caco-2 membrane permeability, improved method; read-out: Caco-2

Structure (SMILES) | Papp A→B at 180 min [×10⁻⁶ cm/s]
CC(C)C[C@@H]1NC(=O)[C@H](C)N(C)C(=O)C[C@@H](C(=O)N2CCCCC2)NC(=O)[C@H](CC(C)C)N(C)C(=O)CN(C)C(=O)[C@H]([C@@H](C)O)NC(=O)[C@H](C)N(C)C(=O)[C@H](Cc2ccccc2)N(C)C(=O)[C@H](COCc2ccccc2)NC(=O)[C@H](Cc2ccccc2)N(C)C(=O)[C@H](CC(C)C)N(C)C1=O [pd368] ([NMeA]L[NMeL][NMeF]S(Bn)[NMeF][NMeA]T[Sar][NMeL]D-Piperidide; lactam N-11) | 2
CNC(=O)CC[C@@H]1NC(=O)[C@H](CC(C)C)N(C)C(=O)[C@H](C(C)C)N(C)C(=O)[C@H](Cc2ccccc2)NC(=O)[C@H](Cc2ccccc2)N(C)C(=O)[C@H](CC(C)C)N(C)C(=O)[C@H](CC(C)C)NC(=O)[C@H](CC(C)C)N(C)C(=O)C[C@@H](C(=O)N2CCCCC2)NC(=O)[C@H](CC(C)C)N(C)C(=O)CN(C)C1=O [pd463] ([NMeL]L[NMeL][NMeF]F[NMeV][NMeL]E(NHMe)[Sar][NMeL]D-Piperidide; lactam N-11) | 1.2
